Laboratory results as given in the NIST ThermoML archive (doi:10.1021/je500696p).

Experiments:
[1] = excess molar enthalpy (molar enthalpy of mixing); xn = mol fraction of the nth substance listed; conditions: 308.15 K, 100 kPa, Liquid, Calvet calorimetry
[2] = xn = mol fraction of the nth substance listed; conditions: 100 kPa, Liquid, Vibrating tube method, x1 = 1

CCCC[N+](C)(C)C.O=S(=O)([N-]S(=O)(=O)C(F)(F)F)C(F)(F)F [butyltrimethylammonium bis(trifluoromethylsulfonyl)imide] + C[S+](C)[O-]
[1]
Conditions | excess molar enthalpy [kcal/mol]
x2 = 0.1288 | -0.027
x2 = 0.2255 | -0.0416
x2 = 0.2609 | -0.0459
x2 = 0.3095 | -0.0511
x2 = 0.3626 | -0.0593
x2 = 0.4382 | -0.0629
x2 = 0.4941 | -0.0667
x2 = 0.4983 | -0.0638
x2 = 0.5007 | -0.0643
x2 = 0.559 | -0.0684
x2 = 0.5642 | -0.0679
x2 = 0.5646 | -0.0691
x2 = 0.6132 | -0.0629
x2 = 0.6267 | -0.0619
x2 = 0.7533 | -0.0399
x2 = 0.7693 | -0.037
x2 = 0.8684 | -0.0155

CN(C)C=O [dimethylformamide] + CCCC[N+](C)(C)C.O=S(=O)([N-]S(=O)(=O)C(F)(F)F)C(F)(F)F
[2]
Conditions | mass density [kg/m3]
293.15 K | 948.7
295.15 K | 946.8
298.15 K | 943.9
303.15 K | 939.1
308.15 K | 934.4
313.15 K | 929.6
318.15 K | 924.8
323.15 K | 920
328.15 K | 915.2
333.15 K | 910.4

CCO [ethanol] + CCCC[N+](C)(C)C.O=S(=O)([N-]S(=O)(=O)C(F)(F)F)C(F)(F)F
[2]
Conditions | mass density [kg/m3]
293.15 K | 789.6
295.15 K | 787.9
298.15 K | 785.3
303.15 K | 781
308.15 K | 776.7
313.15 K | 772.3
318.15 K | 767.9
323.15 K | 763.5
328.15 K | 758.9
333.15 K | 754.4

CCCO [propan-1-ol] + CCCC[N+](C)(C)C.O=S(=O)([N-]S(=O)(=O)C(F)(F)F)C(F)(F)F
[2]
Conditions | mass density [kg/m3]
293.15 K | 803.6
295.15 K | 802.1
298.15 K | 799.7
303.15 K | 795.6
308.15 K | 791.6
313.15 K | 787.5
318.15 K | 783.4
323.15 K | 779.2
328.15 K | 774.9
333.15 K | 770.6
